This is an account of results in patent publication US20250332173A1, “COMPOUNDS AND METHODS FOR MODULATING NUCLEIC ACID SPLICING” (REMIX THERAPEUTICS INC., priority 2021, published 2025).

For orientation: IC50 means the midpoint of a concentration-inhibition curve. Broadly, the GI50 is the concentration at which growth is held to half of that of the control.

Structures are written as SMILES. Counter-ions that a name gives are not always drawn. A value given as a limit tells only on which side of the number the result lay.

The test system of one assay is SMN2 mRNA. Put plainly: RT-qPCR splicing assay, SMN2 canonical junction (CJ) mRNA. It counts as cell-based, human. As to conditions: Homo sapiens; Table 5 panel; canonical junction qPCR; compound concentration having 50% response in CJ decrease; read-out: SMN2 IC50 (decrease in CJ mRNA levels). The gist of the method: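 K562/A673 cells, 11-pt 3-fold compound titration from 10 uM final, DMSO ≤0.25%, 24 h 37 °C 5% CO2; lyse (DNase I or Igepal/Tris buffer pH 7.4); RT-qPCR for CJ isoform vs housekeeping gene (GAPDH/GUSB/PPIA).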
(Quantitative PCR measures a nucleic acid by following its amplification.)

The subject of the next assay is HTT. Put plainly: HiBiT protein abundance assay, HTT HiBiT K562 cell line. The class given is cell-based, human. Particulars: HiBiT K562 cell line, 24 hours, top dose 10 μM; read-out: Effect on protein abundance, HTT (IC50 category). The gist of the method: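 K562 knock-in lines with endogenous HiBiT-tagged target, 10,000 cells/well in IMDM + FBS, treated 24 h at 37° C with 10-point 3-fold dilutions (top 10 μM final; DMSO ≤0.25%). Lytic Nano-Glo HiBiT luminescence normalized to untagged K562 baseline and DMSO controls; IC50 = concentration giving 50% abundance via four-parameter fit.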
(In general: HiBiT is a short tag that completes a luciferase, so light tracks the accessible tagged protein.)

The test system of assay [1] is K562 (human chronic myelogenous leukemia) cells. Put plainly: Cell Titer Glo 2.0 cell viability assay. It counts as cell-based. Particulars: Homo sapiens, K562, 72 h, K562 cells, 72 hours, Cell Titer Glo 2.0; read-out: K562 GI50.

As for `Cc1cc(-c2ccc3c(=O)n(N4CCN(C)CC4)cnc3c2)cc2cn(C)nc12` [Compound 175], the IC50 in the assay on SMN2 mRNA and with HTT was 1000 to 10000 nM throughout. The GI50 in assay [1] lay in the range of 1000 to 10000 nM.
In the case of `Cc1cn2nc(-c3ccc4c(=O)n(C5CCN(C)CC5)cnc4c3)cc(C)c2n1` [Compound 176], the IC50 with SMN2 mRNA was 100 to 1000 nM; in the assay on HTT it was 1000 to 10000 nM. The GI50 in assay [1] was in the range of 1000 to 10000 nM.
On to `CN1CCC(c2ccc3c(=O)n(-c4ccc5nn(C)cc5c4)cnc3c2)CC1` [Compound 177], for which the IC50 in the assay with SMN2 mRNA and in the assay with HTT was over 10000 nM throughout. In addition, in assay [1], the GI50 was over 10000 nM.
In the case of `CN1CCN(c2ccc3c(=O)n(-c4ccc5cn(C)nc5c4)cnc3c2)CC1` [Compound 178], the IC50 in the assay on SMN2 mRNA and with HTT was over 10000 nM in each case. In addition, the GI50 in assay [1] is over 10000 nM.
In the case of `Cc1cc(-c2ccc3c(=O)n(C4CC(C)(C)NC(C)(C)C4)cnc3n2)cc2cn(C)nc12` [Compound 179], the IC50 in the assay on SMN2 mRNA is 1000 to 10000 nM; in the assay on HTT it was over 10000 nM. Further, the GI50 in assay [1] is over 10000 nM.
Take `CN(c1ccc2c(=O)n(-c3ccc4nn(C)cc4c3)cnc2c1)C1CCNCC1` [Compound 180]: the IC50 with SMN2 mRNA and in the assay with HTT was over 10000 nM each time. Moreover, the GI50 in assay [1] is over 10000 nM.
On to `Cc1cn2nc(-c3ccc4c(=O)n(C5CCNCC5)cnc4c3)cc(C)c2n1` [Compound 181], for which the IC50 with SMN2 mRNA and with HTT was under 100 nM in each case. For the same compound, the GI50 in assay [1] lay within 100 to 1000 nM.
Consider `Cc1cc(-c2ccc3c(=O)n(C4CCNC5(CC5)C4)ncc3c2)cc2cn(C)nc12` (stereo not drawn) [Compound 512], for which the IC50 with SMN2 mRNA lay within 100 to 1000 nM; in the assay on HTT, 1000 to 10000 nM. Also, in assay [1], the 50% growth inhibitory concentration (GI50) lay in the range of 1000 to 10000 nM.
Turning to `Cc1nc2c(C)cc(-c3ccc4c(=O)n(C5CCNC6(CC6)C5)ncc4c3)cc2o1` (stereo not drawn) [Compound 513], the half-inhibitory concentration (IC50) in the assay with SMN2 mRNA and in the assay on HTT was 100 to 1000 nM throughout. In addition, the GI50 in assay [1] lay within 1000 to 10000 nM.
Regarding `COc1cc(-c2ccc3c(=O)n(C4CCNCC4)ccc3c2)nn2cc(C)nc12` [Compound 514, 6-(8-methoxy-2-methyl-imidazo[1,2-b]pyridazin-6-yl)-2-(4-piperidyl) isoquinolin-1-one; hydrochloride], the IC50 with SMN2 mRNA and in the assay with HTT was under 100 nM in each case. Moreover, the concentration for 50% growth inhibition (GI50) in assay [1] was under 100 nM.
With `Cc1cn2nc(-c3ccc4c(=O)n(C5CCN(CCF)CC5)ncc4c3)cc(C)c2n1` [Compound 515], the IC50 was under 100 nM with SMN2 mRNA and 100 to 1000 nM with HTT. The GI50 in assay [1] lay within 1000 to 10000 nM.
In the case of `Cc1cn2nc(-c3ccc4c(=O)n(C5CCNCC5)ccc4c3)cc(C(=O)O)c2n1` [Compound 516, 2-methyl-6-[1-oxo-2-(4-piperidyl)-6-isoquinolyl]imidazo[1,2-b]pyridazine-8-carboxylic acid], the half-maximal inhibitory concentration (IC50) with SMN2 mRNA and in the assay with HTT was 1000 to 10000 nM in each case. The GI50 in assay [1] is 1000 to 10000 nM.
With `COC(=O)c1cc(-c2ccc3c(=O)n(C4CCNCC4)ccc3c2)nn2cc(C)nc12` [Compound 517, methyl 2-methyl-6-[1-oxo-2-(4-piperidyl)-6-isoquinolyl]imidazo[1,2-b]pyridazine-8-carboxylate], the results for the IC50 with SMN2 mRNA and in the assay on HTT were under 100 nM and 1000 to 10000 nM, respectively. For the same compound, the GI50 in assay [1] is 1000 to 10000 nM.
As to `CNC(=O)c1cc(-c2ccc3c(=O)n(C4CCNCC4)ccc3c2)nn2cc(C)nc12` [Compound 518, N, 2-dimethyl-6-[1-oxo-2-(4-piperidyl)-6-isoquinolyl]imidazo[1,2-b]pyridazine-8-carboxamide], the IC50 with SMN2 mRNA lay within 100 to 1000 nM; with HTT it was 1000 to 10000 nM. In addition, the GI50 in assay [1] lay within 1000 to 10000 nM.
On to `Cc1cn2nc(-c3ccc4c(=O)n(C5CCNCC5)ccc4c3)cc(Oc3ccccc3)c2n1` [Compound 519, 6-(2-methyl-8-phenoxy-imidazo[1,2-b]pyridazin-6-yl)-2-(4-piperidyl)isoquinolin-1-one], for which the IC50 with SMN2 mRNA and in the assay with HTT was under 100 nM throughout. Besides, the GI50 in assay [1] is under 100 nM.
On to `Cc1cn2nc(-c3ccc4c(=O)n(C5CCNCC5)ccc4c3)cc(CC#N)c2n1` [Compound 520, 2-[2-methyl-6-[1-oxo-2-(4-piperidyl)-6-isoquinolyl]imidazo[1,2-b]pyridazin-8-yl]acetonitrile], for which the IC50 in the assay with SMN2 mRNA was under 100 nM; with HTT it was 100 to 1000 nM. Moreover, in assay [1], the 50% growth inhibitory concentration (GI50) lay in the range of 1000 to 10000 nM.
Take `Cn1ccc2c(cnn2-c2ccc3c(=O)n(C4CCNCC4)ccc3c2)c1=O` [Compound 521]: the IC50 with SMN2 mRNA and with HTT was 1000 to 10000 nM throughout. Also, the GI50 in assay [1] fell in the range of 1000 to 10000 nM.
On to `Cn1ccc2nn(-c3ccc4c(=O)n(C5CCNCC5)ccc4c3)cc2c1=O` [Compound 522, 6-{5-methyl-4-oxopyrazolo[4,3-c]pyridin-2-yl}-2-(piperidin-4-yl)isoquinolin-1-one], for which the IC50 with SMN2 mRNA was 1000 to 10000 nM; in the assay with HTT, over 10000 nM. For the same compound, in assay [1], the GI50 fell in the range of 1000 to 10000 nM.
With `Cc1cn2nc(-c3ccc4c(=O)n(C5CCNCC5)ccc4c3)cc(C(N)=O)c2n1` [Compound 523, 2-methyl-6-[1-oxo-2-(4-piperidyl)-6-isoquinolyl]imidazo[1,2-b]pyridazine-8-carboxamide], the IC50 in the assay with SMN2 mRNA was 100 to 1000 nM; in the assay on HTT, 1000 to 10000 nM. Besides, the GI50 in assay [1] was in the range of 1000 to 10000 nM.
Turning to `Cc1cn2nc(-c3ccc4c(=O)n(C5CCNCC5)ccc4c3)cc(C(=O)N(C)C)c2n1` [Compound 524, N, N, 2-trimethyl-6-[1-oxo-2-(4-piperidyl)-6-isoquinolyl]imidazo[1,2-b]pyridazine-8-carboxamide], the IC50 in the assay with SMN2 mRNA and in the assay on HTT was over 10000 nM throughout. Moreover, the GI50 in assay [1] was over 10000 nM.
With `Cc1cn2nc(-c3ccc4c(=O)n(C5CCNCC5)ccc4c3)cc(CO)c2n1` [Compound 525, 6-[8-(hydroxymethyl)-2-methyl-imidazo[1,2-b]pyridazin-6-yl]-2-(4-piperidyl) isoquinolin-1-one], the IC50 in the assay with SMN2 mRNA and in the assay with HTT was under 100 nM in each case. In assay [1], the GI50 was in the range of 100 to 1000 nM.
With `Cc1cn2nc(-c3ccc4c(=O)n(C5CCNCC5)ccc4c3)cc(OCc3ccccc3)c2n1` [Compound 526, 6-(8-benzyloxy-2-methyl-imidazo[1,2-b]pyridazin-6-yl)-2-(4-piperidyl) isoquinolin-1-one], the IC50 in the assay on SMN2 mRNA was under 100 nM; in the assay with HTT it was 100 to 1000 nM. For the same compound, the GI50 in assay [1] was in the range of 100 to 1000 nM.
With `COC(=O)Cc1cc(-c2ccc3c(=O)n(C4CCNCC4)ccc3c2)nn2cc(C)nc12` [Compound 527], the IC50 is under 100 nM in the assay on SMN2 mRNA and 100 to 1000 nM in the assay on HTT. Besides, the 50% growth inhibitory concentration (GI50) in assay [1] lay in the range of 1000 to 10000 nM.
Regarding `Cc1cn2nc(-c3ccc4c(=O)n(C5CCNCC5)ccc4c3)cc(CC(N)=O)c2n1` [Compound 528, 2-(2-methyl-6-(1-oxo-2-(piperidin-4-yl)-1,2-dihydroisoquinolin-6-yl)imidazo[1,2-b]pyridazin-8-yl) acetamide], the figures for the IC50 with SMN2 mRNA and in the assay with HTT were under 100 nM and 100 to 1000 nM, respectively. In addition, in assay [1], the GI50 lay within 1000 to 10000 nM.
Taken in the same sequence, the figures for `CCOC(=O)c1cc(-c2ccc3c(=O)n(C4CCNCC4)ccc3c2)nn2cc(C)nc12` [Compound 529, ethyl 2-methyl-6-[1-oxo-2-(4-piperidyl)-6-isoquinolyl]imidazo[1,2-b]pyridazine-8-carboxylate] were under 100 nM, 100 to 1000 nM and 1000 to 10000 nM.
Consider `Cn1cc2c(=O)n(-c3ccc4c(=O)n(C5CCNCC5)ccc4c3)ccc2n1` [Compound 530, 6-{2-methyl-4-oxopyrazolo[4,3-c]pyridin-5-yl}-2-(piperidin-4-yl)isoquinolin-1-one], for which the IC50 in the assay with SMN2 mRNA and with HTT was over 10000 nM throughout. For the same compound, in assay [1], the GI50 is over 10000 nM.
As for `Cc1cn2nc(-c3ccc4c(=O)n(C5CCNCC5)ccc4c3)cc(CC(=O)O)c2n1` [Compound 531, 2-[2-methyl-6-[1-oxo-2-(4-piperidyl)-6-isoquinolyl]imidazo[1,2-b]pyridazin-8-yl]acetic acid], the IC50 with SMN2 mRNA and in the assay on HTT was under 100 nM throughout. For the same compound, the GI50 in assay [1] was in the range of 100 to 1000 nM.
`Cc1cn2nc(-c3ccc4c(=O)n(C5CCNCC5)ccc4c3)cc(CCO)c2n1` [Compound 533, 6-[8-(2-hydroxyethyl)-2-methyl-imidazo[1,2-b]pyridazin-6-yl]-2-(4-piperidyl)isoquinolin-1-one]: the IC50 was under 100 nM with SMN2 mRNA and 100 to 1000 nM in the assay on HTT. In assay [1], the GI50 lay within 100 to 1000 nM.
For `CNC(=O)Cc1cc(-c2ccc3c(=O)n(C4CCNCC4)ccc3c2)nn2cc(C)nc12` [Compound 534, N-methyl-2-[2-methyl-6-[1-oxo-2-(4-piperidyl)-6-isoquinolyl]imidazo[1,2-b]pyridazin-8-yl]acetamide], the IC50 in the assay on SMN2 mRNA was under 100 nM; in the assay with HTT, 1000 to 10000 nM. In assay [1], the GI50 fell in the range of 1000 to 10000 nM.
Turning to `Cc1cn2nc(-c3ccc4c(=O)n(C5CCNCC5)ccc4c3)cc(Cc3nnc[nH]3)c2n1` [Compound 535, 6-[2-methyl-8-(4H-1,2,4-triazol-3-ylmethyl)imidazo[1,2-b]pyridazin-6-yl]-2-(4-piperidyl) isoquinolin-1-one], the IC50 in the assay on SMN2 mRNA is under 100 nM; in the assay on HTT it was 1000 to 10000 nM. Also, the GI50 in assay [1] fell in the range of 1000 to 10000 nM.
`Cc1cn2nc(-c3ccc4c(=O)n(C5CCNCC5)ccc4c3)cc(Cc3nnn[nH]3)c2n1` [Compound 536, 6-[2-methyl-8-(1H-tetrazol-5-ylmethyl)imidazo[1,2-b]pyridazin-6-yl]-2-(4-piperidyl) isoquinolin-1-one]: the IC50 in the assay with SMN2 mRNA is 1000 to 10000 nM; in the assay with HTT, over 10000 nM. Also, the GI50 in assay [1] was over 10000 nM.
